The values below come from patent publication US11951167B2, “Targeted liposomes” (GEORGETOWN UNIVERSITY, priority 2012, dated 2024).

Where two headings read alike, the source gives them in different places. Bounds are passed on as bounds.

Assay [1] deals with T98G cells. The conditions noted are these: TMZ resistant T98G, XTT.
From the text: The in vitro cell killing ability of the scL-TMZ was compared to free, unencapsulated TMZ in TMZ resistant human brain tumor cell line T98G using the XTT assay.
The test system of assay [2] is U87 cells. Description: XTT cell viability, Lip-TMZ vs free TMZ. The class given is cell-based, human.
The test system of the next assay is LN-18 cells. The assay is described as follows: XTT sensitization of TMZ resistant cells by scL-p53. It counts as cell-based, human. The conditions noted are these: XTT 72 h after TMZ addition. As to the method:
(§1) However, as only a subset of brain tumor patients respond to TMZ it was more critical to assess the ability of scL-p53 to sensitize TMZ resistant tumors to this chemotherapeutic agent. Thus, to assess the ability of scL delivered wtp53 to sensitize TMZ resistant brain tumor cells to this first-line chemotherapeutic agent, human brain tumor derived LN-18 and T98G cells were treated with TMZ alone, or the combination of TMZ plus scL-p53 (FIG. 23). As a control, cells were also treated with the combination of TMZ and the scL delivery system carrying the same vector used to construct the pSCMVp53 plasmid, but without the p53 insert (scL-vec). The cells were plated in a 96-well plate and treated 24 hours later with scL-p53 or scL-vec. 24 hours post-transfection, the TMZ was added in increasing concentrations. […] As shown in FIG. 23 with LN-18 cells, after transfection with scL-p53 these TMZ resistant cells are now responding to even very low doses of TMZ. […] With the T98G cells (FIG. 23), although not as responsive as to TMZ as LN-18 after treatment with scL-p53, these highly resistant cells are also sensitized to the killing effects of this drug.

For assay [3], the system named is T98G cells. The assay is described as above. It counts as cell-based, human. The settings on record: XTT 72 h after TMZ addition. As to the method: as §1
The test system of assay [4] is U87 cells. The assay is described as follows: XTT sensitization to TMZ by scL-p53. The class given is cell-based, human. The settings on record: XTT 144 h after TMZ addition. On the procedure:
(§2) To assess the ability of scL delivered wtp53 to sensitize brain tumor cells to first-line chemotherapeutic agent TMZ, human brain tumor derived U87 and U251 cells were treated with TMZ alone, or the combination of TMZ plus scL-p53 (prepared as described in U.S. Pat. No. 7,780,882). As a control, cells were also treated with the combination of TMZ and the scL delivery system carrying the same vector used to construct the pSCMVp53 plasmid, but without the p53 insert (scL-vec). The cells were plated in a 96-well plate and treated 24 hours later with scL-p53 or scL-vec. 6 hours post-transfection, the TMZ was added in increasing concentrations. […] As these two cell lines are known to be sensitive to TMZ, it was not unexpected that there was some response to TMZ alone.

Another assay has as its system U251 cells. Description: XTT sensitization to TMZ by scL-p53. It counts as cell-based, human. The settings on record: XTT 144 h after TMZ addition. As to the method: as §2
Assay [5] relates to glioblastoma multiforme / anaplastic astrocytoma. The settings on record: cited from earlier work.

As for `Cn1nnc2c(C(N)=O)ncn2c1=O` [TMZ, temozolomide], the IC50 in the assay with T98G cells [1] is > 1000 µM; in the assay on T98G cells [3], ~2000 µM. The cell killing effect entry in the assay with U87 cells [2] was “virtually no cell killing effect”. Besides, the “dose of TMZ until which no significant cell death is observed” value in the assay on LN-18 cells is ~1000 µM. For the same compound, the “sensitization/response to TMZ” value in the assay on U87 cells [4] and in the assay on U251 cells was “some response” throughout. Besides, the “AA patients who do not benefit from TMZ” value in assay [5] (human, in vivo) is listed as 50%. The “GBM patients who do not benefit from TMZ” value in assay [5] (human, in vivo) is recorded as 60-75%. In assay [5] (subset of GBM patients), the “median increase in survival compared to radiation alone” value is reported as 2.5 months.
